Test [1] deals with MDA-MB-231 breast carcinoma spheroids. Briefly: Clonogenic survival of MDA-MB-231 spheroids after doxorubicin. The test is classed as cell-based, human. The conditions noted are these: 200 μM doxorubicin. As to the method:
Following initial cell plating, spheroids formed for 24, 48, 72, 96 or 120 h. At each time point, spheroids were exposed to 200 μM of doxorubicin, then disaggregated and plated for assessment of colony formation (survival).
Spheroids were allowed to form for 72 h. DETA/NO was applied for the final 24 h of spheroid formation. Spheroids were then exposed to doxorubicin for 1 h, prior to disaggregation and plating for assessment of survival by clonogenic assay.
Using human MDA-MB-231 breast carcinoma cells in clonogenic assays, survival was determined following doxorubicin exposure and NO mimetic administration to both monolayer and spheroid cultures.

For test [2], the system named is MDA-MB-231 breast cancer cells. Briefly: Colony formation assay for doxorubicin resistance, MDA-MB-231 monolayer. The test is classed as cell-based, human. The conditions noted are these: 200 μM doxorubicin. As to the method:
The resistance of MDA-MB-231 breast cancer cells to doxorubicin was determined following culture in 20% or 1% oxygen by counting the number of colonies formed. MDA-MB-231 cells were incubated in 1% O2 or 20% O2 for 24 hours. […] The cells were washed and then plated onto 35 mm plates at different dilutions. The cells were incubated for an additional 1-2 weeks in order to allow cell colonies to grow. At the end of the incubation period, the cells were fixed with Carnoy's fixative, stained with Crystal violet, rinsed and allowed to air dry. Colonies were counted visually. The surviving cells under each condition was determined by counting the number of colonies and was expressed as a fraction of the number of colonies that survived without doxorubicin exposure.
Using human MDA-MB-231 breast carcinoma cells in clonogenic assays, survival was determined following doxorubicin exposure and NO mimetic administration to both monolayer and spheroid cultures. […] However, these NO mimetics effectively attenuated the resistance to 200 μM doxorubicin associated with 3D culture by 90% and 30% respectively.

The subject of test [3] is mouse TRAMP-C2 prostatic adenocarcinoma cells. The conditions noted are these: 0.5% vs 20% O2; one-hour doxorubicin. As to the method: (§1) Low tumor oxygenation (hypoxia) correlates with increased metastasis and resistance to radiotherapy and chemotherapy. […] This was followed by a one-hour incubation with doxorubicin and survival was assessed by colony formation assays. Western blot analysis was used to measure NO synthase (NOS) protein levels in cells cultured in 20% and 0.5% O2.

Test [4] has as its system human PC-3 prostatic adenocarcinoma cells. The conditions noted are these: 0.5% vs 20% O2; one-hour doxorubicin. As to the method: as §1

`COc1cccc2c1C(=O)c1c(O)c3c(c(O)c1C2=O)C[C@@](O)(C(=O)CO)C[C@@H]3O[C@H]1C[C@H](N)[C@H](O)[C@H](C)O1` [doxorubicin]: the “decrease in survival of tumor cells cultured as spheroids” value in test [1] stood at 90%. For the same compound, in test [2], the “survival in monolayer culture” value is given as “zero”. For the same compound, the “increased survival following doxorubicin after pre-incubation under hypoxia” value in test [3] is “up to 12 fold”; in test [4] it was “up to 8 fold”.

The values are drawn from US8168232B2, “Formulations and methods of using nitric oxide mimetics in cancer treatment” (priority 2000, dated 2012).
